The target of this assay is T1, human factor Xa (Homo sapiens, UniProt P00742).
T1 construct: Purified human factor Xa; purchased Alexis Corporation, Nottingham, UK
In words: Enzyme inhibition assay, chromogenic substrate pefachrome-FXA. The format is biochemical. The conditions noted are these: room temperature, 0.1M phosphate buffer, pH7.4.

In patent publication US6420438B1, “1-amino-7-isoquinoline derivatives as serine protease inhibitors” (Tularik Limited, priority 1998, dated 2002) one finds Ki data, which are given here for 2 compounds.

T1 sequence (P00742 235-488 limits assumed): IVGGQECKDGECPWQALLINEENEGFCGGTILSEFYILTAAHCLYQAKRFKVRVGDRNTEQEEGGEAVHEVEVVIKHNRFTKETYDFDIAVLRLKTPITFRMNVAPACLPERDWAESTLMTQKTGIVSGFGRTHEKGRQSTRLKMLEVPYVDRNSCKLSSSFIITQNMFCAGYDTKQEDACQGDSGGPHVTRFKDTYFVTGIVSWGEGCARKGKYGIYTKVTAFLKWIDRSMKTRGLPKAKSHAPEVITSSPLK
T1 sequence (P00742 41-179 partner limits assumed): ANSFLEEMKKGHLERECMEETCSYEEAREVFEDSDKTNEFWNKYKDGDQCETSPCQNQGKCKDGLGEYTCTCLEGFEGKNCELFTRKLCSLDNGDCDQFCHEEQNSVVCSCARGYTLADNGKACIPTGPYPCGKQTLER

The term Ki denotes the equilibrium dissociation constant of an inhibitor or competing ligand from its target. For the compound `CN1CCC(C2CCN(C(=O)[C@H](NC(=O)c3ccc4ccnc(N)c4c3)c3ccccc3)CC2)CC1` [Example 75, 1-Aminoisoquinolin-7-oyl-D-phenylglycine-4,4′-(1′-methyl)bipiperidinamide], the Ki was determined as 0.008 µM.
The same measure for `N=C(N)c1ccccc1` [benzamidine]: 155 µM.
